According to patent US8524754B2, “Polymorphic, crystalline and mesophase forms of sodium 2-(5-bromo-4-(4-cyclopropylnaphthalen-1-yl)-4H-1,2,4-triazol-3-ylthio) acetate, and uses thereof” (Ardea Biosciences, Inc., priority 2010, dated 2013):

Experiment: Solid-state stability of packaged Form A / crystalline polymorphs under accelerated and long term conditions
Assay type: physicochemical
Settings: for degradation of packaged Form A: double LDPE bag inside heat sealed anhydrous foil bag in HDPE container
Method: Form A of sodium 2-(5-bromo-4-(4-cyclopropylnaphthalen-1-yl)-4H-1,2,4-triazol-3-ylthio)acetate was tested under various conditions to determine thermodynamic stability. […] Packaging was in a double low density polyethylene plastic bag inside a heat sealed anhydrous foil bag in an HDPE container.
The improved stability of the crystalline polymorphs of sodium 2-(5-bromo-4-(4-cyclopropylnaphthalen-1-yl)-4H-1,2,4-triazol-3-ylthio)acetate provides for the preparation of pharmaceutical dosage forms displaying reduced variability in the dosage present in a given dosage form, reduction in the presence of impurities in the final pharmaceutical product, and an improved shelf life of formulated dosage forms when compared to the pharmaceutical dosage form prepared with the amorphous solid state form of the carboxylic acid.

degradation of packaged Form A (accelerated conditions (40° C.-75% RH), 6 months): No degradation
degradation of packaged Form A (long term conditions (25° C.-60% RH), 12 months): no degradation
SMILES: O=C([O-])CSc1nnc(Br)n1-c1ccc(C2CC2)c2ccccc12.[Na+] [Form A, sodium 2-(5-bromo-4-(4-cyclopropylnaphthalen-1-yl)-4H-1,2,4-triazol-3-ylthio)acetate]
stability in comparison to the amorphous solid state form of the carboxylic acid (free acid) (solid state): improvement over the solid state amorphous free acid
